In ChEMBL document CHEMBL1201862, “PubChem BioAssay data set” (2004):
The source made the active and inactive calls. Unless noted, no cut-off for these calls is given here.

Experiments:
[1] = target: Delta-type opioid receptor (Homo sapiens, UniProt P41143); experiment: Late-stage results from the probe development effort to identify antagonists of OPRK1: fluorescence-based cell-based dose response OPRD1 counterscreen.; assay type: functional
Mu-type opioid receptor = Mu-type opioid receptor (Homo sapiens, UniProt P35372); experiment: Late-stage results from the probe development effort to identify antagonists of OPRK1: luminescence-based cell-based dose response OPRM1 counterscreen.; assay type: functional
cells [2] = experiment: cells
Major prion protein = Major prion protein (Homo sapiens, UniProt P04156); assay type: functional, cell-based
[3] = HEK293 cell viability loss – cherry-picked samples, cytotoxicity control, dose response (AID 1053185); assay type: functional, cell-based
[4] = HepG2 cell viability loss – cherry-picked samples, cytotoxicity control, dose response (AID 1053183); assay type: functional, cell-based
[5] = A549 cell viability loss – cherry-picked samples, cytotoxicity control, dose response (AID 1053184); assay type: functional, cell-based
[6] = P. falciparum Dd2 growth inhibitors, dose response, SYBR Green, cherry-picked samples (AID 1159567); assay type: functional, cell-based
[7] = toxicity to human hepatoma HepG2 cells – cell-based, cherry-picked samples, cytotoxicity control, dose response (AID 1159577); assay type: functional
[8] = alpha-synuclein stem-loop luciferase translation blockers – H4 neuroglioma cells, luminescence, confirmation (AID 1988); assay type: functional, cell-based
[9] = luciferase reporter signal suppression in cells – H4 neuroglioma cells, luminescence, dose response (AID 1990); assay type: functional, cell-based
[10] = Luminescence Cell-Based Dose Response HTS to Identify Inhibitors of 5'UTR Stem-Loop Driven Prion Protein mRNA Translation in H4 Neuroglioblastoma Cells. [Related pubchem assays: 1827 (Project Summary), 1813 (Primary HTS)]; assay type: functional
cells [11] = experiment: cells; remark: listed apart in the source

In the case of `COC(=O)c1cc(Br)cnc1N1CCC(NC2CCOCC2)CC1`, the IC50 [1] is reported as > 50 µM (inactive) and the IC50 (Mu-type opioid receptor) is reported as 50 µM (inactive).
In the case of `CCCc1nc(SCC(=O)NNC(=O)c2ccc(OC)cc2)c2ccccc2n1`, the IC50 (cells [2]) is reported as > 138 µM (inactive) and the IC50 (Major prion protein) is reported as 1.52 µM (active).
In the case of `C(=C\c1ccc([C@@H]2[C@@H]3CN(Cc4ccc5c(c4)OCO5)C[C@H]2N3)cc1)/c1ccccc1`, the AC50 [3] is reported as 17 µM (active), the AC50 [4] is reported as 17.1 µM (active) and the AC50 [5] is reported as > 12 µM (inactive). For the same molecule, the AC50 [6] was 6.09 µM (active) and the AC50 [7] was 9.8 µM (active).
In the case of `CCOc1ccccc1/N=c1\oc2cc(O)ccc2cc1C(=O)NCC1CCCO1` (stereo not drawn), the EC50 [8] is reported as > 120 µM (not active), the EC50 [9] is reported as > 120 µM (not active) and the EC50 [10] is reported as > 120 µM (not active). The AC50 (cells [11]) was > 70 µM (inactive).
